Values quoted from earlier work in US8603996B2, “Modular aptamer-regulated ribozymes” (California Institute of Technology, priority 2006, dated 2013).

Test system: theophylline aptamer

binding affinity lower than theophylline: 27 fold
Structure (SMILES): O=c1[nH]c(=O)c2[nH]cnc2[nH]1 [xanthine]
